The term AC50 denotes the concentration giving half of the maximal activity seen.

Calls of active or inactive are those of the source.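 How the source made its calls: active means AC50 no more than ten times the top concentration tested, that is within one log above it; inconclusive means flat curve fit with activity between 30% and 70%, or invalid poor fit; inactive means AC50 beyond ten times the top tested dose.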

The test system of the experiment is S. cerevisiae Mot1-301 ts growth rescue, BacTiter-Glo ATP luminescence. Put plainly: restored Mot1-301 yeast growth at 38.5C – whole organism, S. cerevisiae, Mot1-301 ts mutant, luminescence, dose retest, SUMOylation pathway inhibitor project, confirmation (AID 463204).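 Further: growth at restrictive 38.5 degrees C of Mot1-301 OY566 strain; actives raise luminescence by restoring growth of the ts mutant at high temperature.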
`CCN1C(=NCc2cccc(Cl)c2)N[C@@H](c2cccc(F)c2)C(C(=O)OC)=C1C`: the AC50 was > 42 µM (inactive).
Under `COc1ccc(C(=O)N/C(=C\c2cn(C)c3ccccc23)C(=O)OCCN(C)C)cc1` stands > 42 µM (inactive); under `COc1ccc(OC)c(NC(=O)CN(C)S(=O)(=O)c2ccc(Cl)cc2)c1`, > 42 µM (inactive).
Turning to `COc1ccc(C2=NOC(Cn3nc(C(=O)NCc4cccs4)cc3-c3ccccc3)C2)cc1` (stereo not given), the AC50 is > 42 µM (inactive).
Regarding `Cn1cc(C(=O)N2CCCC(Nc3ccc(F)cc3)C2)c2ccccc21` (stereo not given), the AC50 was > 42 µM (inactive).
Under `CCc1cc2c(=O)c(-c3ccc(F)cc3)c(C(F)(F)F)oc2cc1OCC(=O)O` stands > 42 µM (inactive); under `N#C/C(=N\Nc1cccc(F)c1)C(=N)N1CCCCCC1`, > 42 µM (inactive); under `Cc1cccc(C(=O)NCC(=O)N2CCN(c3ccc(Cl)cc3)CC2)c1`, > 42 µM (inactive).
Under `Cc1nc(N)c(Cc2ccccc2F)c(N)n1` stands > 42 µM (inactive); under `CCOC(=O)N1CCN(C(=O)CNC(=O)c2nn(-c3ccc(OC)c(OC)c3)c(=O)c3ccccc23)CC1`, > 42 µM (inactive); under `Cc1ccc(S(=O)(=O)NCC(=O)OCC(=O)c2ccc(Br)s2)cc1`, > 42 µM (inactive).
For the compound `CCOc1ccccc1C(=O)N(Cc1cccs1)C1CCS(=O)(=O)C1` (stereo not given), the AC50 was > 42 µM (inactive).
Under `CCn1c(SCC(=O)OC)nnc1-c1ccncc1` stands > 42 µM (inactive); under `CC(C)CCCN1CCN=C1Nc1ccccc1`, > 42 µM (inactive); under `Cc1c(NC(=O)c2ccc(N(C)S(C)(=O)=O)cc2)c(=O)n(-c2ccccc2)n1C`, > 42 µM (inactive).
For `O=C(O)CCc1ccc(-c2cccs2)n1NC(=O)c1cccs1`, the AC50 is > 42 µM (inactive).
Under `O=c1c2ccccc2c2ccccc2c(=O)n1-c1ccccc1` stands > 42 µM (inactive); under `O=[N+]([O-])c1ccccc1CN1CC=C(c2ccc(F)cc2)CC1`, > 42 µM (inactive).
Under `Cc1c(OC(C)C(=O)N2C[C@H]3C[C@@H](C2)c2cccc(=O)n2C3)ccc2c3c(c(=O)oc12)CCCC3` (stereo not given in full) stands > 42 µM (inactive); under `Cc1ccc(S(=O)(=O)NCC(C)n2cncn2)cc1` (stereo not given), > 42 µM (inactive).
Turning to `CCOc1ccc2nc(C(C)O)[nH]c2c1` (stereo not given), the AC50 is > 42 µM (inactive).
In the case of `CCOP(=O)(OCC)c1cc(CC)ccc1O`, the AC50 was > 42 µM (inactive).
Under `CC(C)(C)Cc1nc(-c2ccccn2)no1` stands > 42 µM (inactive); under `COc1ccc(N=Cc2c(O)n(C)c(=O)[nH]c2=O)cc1`, > 42 µM (inactive).
Under `COc1ccc(C(=O)CSc2nnc(CNC(=O)c3ccccc3)n2C)cc1` stands > 42 µM (inactive); under `CS(=O)(=O)N(CC(=O)Nc1ccccc1C(=O)N1CCCC1)c1ccc2c(c1)OCO2`, > 42 µM (inactive).
As for `Cc1c(NC(C)c2cc(Cl)ccc2O)c(=O)n(-c2ccccc2)n1C` (stereo not given), the AC50 was > 42 µM (inactive).
For `O=C(/C(=N\Nc1ccc(Br)cc1)Sc1nnnn1-c1ccccc1)c1ccccc1`, the AC50 was > 42 µM (inactive).
Under `COc1ccc(NC2CC(=O)N(C(C)C)C2=O)cc1` (stereo not given) stands > 42 µM (inactive); under `CCN(CC1COc2ccccc2O1)C(=S)NCCCN(C)C` (stereo not given), > 42 µM (inactive).
Under `Cc1cc(C)cc(OCC(=O)Nc2ccc(N3CCN(C(=O)c4ccco4)CC3)cc2)c1` stands > 42 µM (inactive); under `Cc1cc(NC(=O)c2ccc3c(c2)C(=O)N(C(C)(C)C)C3=O)no1`, > 42 µM (inactive); under `O=S1(=O)NC(c2ccccc2)CC(CC2CCCCC2)O1` (stereo not given), 38.7 µM.
Under `CCOc1ccc2nc(CN3CCN(Cc4ccccc4OCC)C(CCO)C3)ccc2c1` (stereo not given) stands > 42 µM (inactive); under `CCOC(=O)CNC(=O)c1c(C)nn(C)c1Cl`, > 42 µM (inactive); under `COc1ccc(NC2CCCN(C(=O)CCc3scnc3C)C2)cc1` (stereo not given), > 42 µM (inactive).
As to `CN(NC(=O)c1ccccc1F)c1nc(C(F)(F)F)nc2ccccc12`, the AC50 is > 42 µM (inactive).
Under `NC1=NC(=Nc2ccc(S(N)(=O)=O)cc2)c2ccccc21` stands > 21 µM (inactive); under `N#Cc1c(Cn2cncn2)nc(=O)n(-c2ccc(Cl)cc2)c1N`, > 42 µM (inactive); under `COc1cccc(OC)c1C(=O)Nc1ccc2c(c1)n(C)c(=O)n2C`, > 42 µM (inactive).
Under `COC(CNC(=O)c1cn(C)c2ccc(S(=O)(=O)N3CCOCC3)cc2c1=O)OC` stands > 42 µM (inactive).
Regarding `OC1CN=C2CCCc3c2n(c2ccc(Cl)cc32)C1` (stereo not given), the AC50 was > 42 µM (inactive).
Under `CC(C)C1OC2(C)OC(=N)C1(C#N)C(C#N)(C#N)C2c1ccccc1` (stereo not given) stands > 42 µM (inactive).
Under `Cc1ccsc1C(=O)NCCc1ccc(S(N)(=O)=O)cc1` stands > 42 µM (inactive); under `CC(OC(=O)c1cnccn1)C(=O)c1ccccc1` (stereo not given), > 42 µM (inactive).
Under `C/C(=N/Nc1ccc(F)cc1)c1ccc(Cl)s1` stands > 42 µM (inactive).
In the case of `CCOC(=O)COc1nc(-c2ccc(C)cc2)cc(-c2ccco2)c1C#N`, the AC50 was > 42 µM (inactive).
For `CC(C)CCn1c(C(C)O)nc2ccccc21` (stereo not given), the AC50 was > 42 µM (inactive).
Turning to `c1ccc2c(C[C@@H]3CNCCN3CCCCC3CCCCC3)cccc2c1`, the AC50 is 15.6 µM.
Under `[N-]=[N+]=NCCN1CCC(O)CCC1=O` (stereo not given) stands > 42 µM (inactive); under `C/C(N)=C(/C#N)C(=O)CSc1nnc(-c2ccccc2)n1C`, > 42 µM (inactive).
Under `CCOc1ccccc1N(C(=O)c1snc(C(N)=O)c1N)C(CC)C(=O)NC1CCCC1` (stereo not given) stands 41.7 µM; under `CC(=O)c1ccc2noc(-c3ccc(F)cc3)c2c1`, > 42 µM (inactive); under `CCc1c(C)c2ccc(OCC(=O)OC(C)C)c(C)c2oc1=O`, > 42 µM (inactive).
Under `CCOc1ccc(C(=O)Nc2ccc(CN3CCOCC3)cc2)cc1Br` stands > 21 µM (inactive); under `Clc1ccccc1C(c1ccccc1)(c1ccccc1)n1ccnc1`, 3.47 µM.
For `Cc1cc(C)c(NC(=O)Cn2c([N+](=O)[O-])cnc2C)c(C)c1`, the AC50 is > 42 µM (inactive).
Under `Cc1cc(=O)oc2ccc(OC(=O)CC(C)C)cc12` stands > 42 µM (inactive).
Under `CC(C)C/C(=N/O)c1c[nH]c2ccccc12` stands > 42 µM (inactive); under `CC(NC(=O)CCc1nnc(-c2ccc(-c3ccccc3)cc2)o1)c1nc2ccccc2[nH]1` (stereo not given), > 42 µM (inactive).
Consider `Cc1ccc(C)n1-n1cnc2sc3c(c2c1=O)CCCCC3`, for which the AC50 is > 42 µM (inactive).
Under `CC(=O)N1CCc2cc(S(=O)(=O)NCCC3=CCCCC3)ccc21` stands > 42 µM (inactive).
Under `CNc1csc(C)c(C)c1=O` stands > 42 µM (inactive); under `CC1CCCCN1C(=O)C(Cc1ccccc1)N1C(=O)C2CCCCC2C1=O` (stereo not given), 32.5 µM.
Under `CCn1c(SCC(N)=O)nnc1-c1cc2c(C)nn(-c3ccccc3)c2s1` stands > 42 µM (inactive).
With `CCCCOC(=O)/C(=C/C=C/c1ccccc1)NC(=O)c1ccccc1`, the AC50 is > 42 µM (inactive).
Take `CC1CC(C)(C)N(C(=O)CN2C(=O)CCC2=O)c2ccccc21` (stereo not given): the AC50 was > 42 µM (inactive).
Under `Cc1cc(=O)n2[nH]c(-c3ccc(F)cc3)nc2n1` stands > 42 µM (inactive); under `CCOC(=O)c1c(C)[nH]c(C(=O)COC(=O)c2ccncc2)c1C`, > 42 µM (inactive); under `CN(C(=O)c1ccc(-c2nn(C)c(=O)c3ccccc23)cc1)C1CCCCC1`, > 42 µM (inactive).
Under `O=C(C[n+]1ccc(C(=O)N/N=C/c2ccc(Cl)cc2Cl)cc1)c1ccccc1` stands > 42 µM (inactive); under `Cc1cc(-c2ccccc2)n(-c2ccc(C(=O)NC(C)C)cc2)n1`, > 42 µM (inactive); under `Cc1ccc(S(=O)(=O)Nc2n[nH]nc2C(=O)NC2CCCCC2)cc1`, > 42 µM (inactive).
Under `O=C1c2cc(N3CCCC3)c([N+](=O)[O-])cc2C(=O)N1c1ccccc1` stands > 42 µM (inactive); under `Cc1ccc(C(=O)/C=C/c2ccc(-c3ccccc3[N+](=O)[O-])o2)cc1`, > 42 µM (inactive); under `COc1ccc(N2CCN(C(=O)C3CCCN(S(=O)(=O)c4ccc5c(c4)oc(=O)n5C)C3)CC2)cc1` (stereo not given), > 21 µM (inactive).
For the compound `O=C1CN(C(=O)COC(=O)COc2ccc3c(c2)CCC3)c2ccccc2N1`, the AC50 is > 42 µM (inactive).
As to `COc1ccc2c(c1)[C@H]1[C@H](CO2)[C@H](c2ccccc2)[C@]2(C)C(=O)Nc3cc(F)ccc3C(=O)N12`, the AC50 was 7.87 µM.
Under `COc1ccc(NC(=O)c2ccc(-c3csc(C)n3)cc2)cc1` stands > 42 µM (inactive).
For the compound `NC(=O)NC(=O)CSc1nc(C2CCCCC2)n(-c2ccccc2)n1`, the AC50 is > 42 µM (inactive).
Under `COc1ccc(NS(=O)(=O)c2cccc(C(=O)NCCCn3ccnc3)c2)cc1` stands > 21 µM (inactive); under `CCNc1nc(NCC)nc(SCCOC(=O)Nc2ccccc2)n1`, > 42 µM (inactive); under `Nc1nnc(CC(=O)N2CCCCC2)s1`, > 42 µM (inactive).
Under `CN=C(Nc1cccnc1)c1ccccc1` stands > 42 µM (inactive); under `COc1nc(-c2ccccc2)ccc1-c1noc(-c2ccccc2)n1`, > 42 µM (inactive); under `Cc1nc2ccccc2n(CC(=O)Nc2cc(Cl)cc(Cl)c2)c1=O`, > 42 µM (inactive).
Under `CC(C)c1nc2n[nH]c(N)c2c2c1CCC2` stands > 42 µM (inactive); under `OC[C@@H](O)CCl`, > 42 µM (inactive); under `Cc1ccc(CN(C)C(=O)c2ccc3c(c2)NC(=O)CS3)o1`, > 42 µM (inactive).
Consider `CN(C(=S)NC1=CCS(=O)(=O)C1)C1CCCCC1`, for which the AC50 was > 42 µM (inactive).

Values taken from PubChem BioAssay AID463204 (Broad Institute, 2010).
